Measured values taken from paper PMC7464559, “Synthesis, Optimization, Antifungal Activity, Selectivity, and CYP51 Binding of New 2-Aryl-3-azolyl-1-indolyl-propan-2-ols” (Pharmaceuticals, 2020).
In brackets after ≈: the same amount, converted by molar mass. Entries after “also recorded” stand apart in the source; their conditions may differ.

Tests used:
C. albicans CA98001 = test: Anti-Candida in vitro assay (Alamar Blue), C. albicans CA98001; format: cell-based; conditions: for MIC: Candida albicans, CA98001, 24 h, MIC = IC80, 24 h at 37 °C, mean of triplicate; for Times more active than FLC against C. albicans CA98001: ratio of MIC values versus FLC
Description: (§1) Test fungal strains were obtained from the American Type Culture Collection (ATCC) or were clinical isolates from the Laboratory of Parasitology and Medical Mycology, Centre Hospitalier Universitaire (CHU) of Nantes. The strains were maintained on Sabouraud agar slants and were subcultured 24 h before used. The activity of the target compounds 8a–g and 11a–m was determined by the method previously described. Briefly, molecules were diluted in RPMI 1640 medium supplemented with 0.165 M morpholinopropanesulphonic acid (Sigma-Aldrich, Saint-Quentin Fallavier, France), 2% glucose, and antibiotics. Candida suspensions were prepared in RPMI 1640 medium (Sigma-Aldrich, Saint-Quentin Fallavier, France) adjusted to give a final concentration of 10^3 cells/mL, and a 96-well microplate (Nunc, D. Dutscher, Brumath, France) was seeded with 100 µL. Each concentration of molecules (100 µL) to be tested was added (in triplicate) and plates were incubated at 37 °C for 24 h. The cellular viability was evaluated on the Fluorolite 1000 (Dynatech, France) with an excitation at 550 nm and an emission at 590 nm after a 4 h incubation with 10 µL of Alamar Blue®. […] MIC was expressed as the mean of the triplicate values. KTC and FLC were used as standards.

CK98002 (Candida krusei) = test: Anti-Candida in vitro assay, CK98002; format: cell-based; conditions: Pichia kudriavzevii; Candida krusei CK98002, mean of triplicate; read-out: MIC (IC80) CK98002
Description: as §1

aromatase (CYP19) = target: T1, aromatase (CYP19) (Homo sapiens, UniProt P11511); test: In vitro inhibition of aromatase; format: biochemical; conditions: at 36 µM
T1 construct: Microsomal protein (0.1 mg) was added to start the reaction; from tissue; host or cells: microsomes; ('human placental microsomes')
T1 sequence (P11511 1-503): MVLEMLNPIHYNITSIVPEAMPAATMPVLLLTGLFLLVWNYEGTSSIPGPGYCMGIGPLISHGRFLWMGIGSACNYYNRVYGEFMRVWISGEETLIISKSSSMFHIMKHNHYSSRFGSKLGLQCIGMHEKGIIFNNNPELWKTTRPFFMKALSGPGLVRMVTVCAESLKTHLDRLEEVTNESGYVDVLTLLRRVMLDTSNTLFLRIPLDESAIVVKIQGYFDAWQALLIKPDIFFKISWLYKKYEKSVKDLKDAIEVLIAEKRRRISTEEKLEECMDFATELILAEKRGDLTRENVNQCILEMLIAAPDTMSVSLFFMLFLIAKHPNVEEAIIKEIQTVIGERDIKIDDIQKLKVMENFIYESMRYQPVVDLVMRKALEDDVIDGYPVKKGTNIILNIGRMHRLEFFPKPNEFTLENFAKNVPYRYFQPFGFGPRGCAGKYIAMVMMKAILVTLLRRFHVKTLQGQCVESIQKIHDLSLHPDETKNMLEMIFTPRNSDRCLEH
Description: The assay was performed according to previously described methods [49, 50, 51] by monitoring the enzyme activity by measuring the ^3H2O formed from [1β-^3H]androstenedione during aromatization. […] Microsomal protein (0.1 mg) was added to start the reaction. After incubation of 15 min at 30 °C, the reaction was stopped by adding 200 µL of a cold HgCl2 solution (1 mM). After the addition of 200 µL of an aqueous dextran-coated charcoal (DCC) suspension (2%), the vials were shaken then centrifuged to separate the charcoal-absorbed steroids. Aliquots of the supernatant were assayed for ^3H2O by counting in a scintillation mixture using a LKB-Wallac β-counter.

[1] = target: T2, aldosterone synthase (CYP11B2) (Homo sapiens, UniProt P19099); test: In vitro inhibition of CYP11B2 (Schizosaccharomyces pombe MB164); format: cell-based; conditions: inhibitor 100 nM to 5 µM, three to four independent experiments
T2 construct: expressed in transfected cells; host or cells: Schizosaccharomyces pombe strain MB164
T2 sequence (P19099 25-503): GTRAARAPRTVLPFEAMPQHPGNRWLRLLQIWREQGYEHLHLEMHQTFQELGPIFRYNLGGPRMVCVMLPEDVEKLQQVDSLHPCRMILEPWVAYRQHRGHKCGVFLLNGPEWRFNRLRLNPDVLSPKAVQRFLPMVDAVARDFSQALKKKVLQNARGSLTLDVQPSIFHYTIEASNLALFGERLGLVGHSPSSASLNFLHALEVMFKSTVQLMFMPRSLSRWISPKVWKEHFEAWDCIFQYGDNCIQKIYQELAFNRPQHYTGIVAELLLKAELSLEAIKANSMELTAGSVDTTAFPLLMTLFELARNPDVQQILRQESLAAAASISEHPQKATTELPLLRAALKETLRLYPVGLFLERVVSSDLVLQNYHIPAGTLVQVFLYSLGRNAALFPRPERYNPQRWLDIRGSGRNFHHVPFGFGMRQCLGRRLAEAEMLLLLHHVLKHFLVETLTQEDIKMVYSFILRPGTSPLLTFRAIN
Description: For the CYP11B1 assay, 11-deoxycortisol (RSS) was used as substrate, whereas 11-deoxycorticosterone (DOC) was used for the CYP11B2 assay. These non-radioactive steroids were purchased from Sima (Deisenhofen, Germany). Radioactive steroids were obtained from Amersham Pharmacia Biotech (Freiburg, Germany). Two Schizosaccharomyces pombe strains were used, SZ1 expressing CYP11B1 and MB164 expressing CYP11B2. The assays were performed as described previously by Bureik et al.. Exponentially growing fission yeast cells were cultivated by shaking and with good aeration at 30 °C in 500 µL Edinburgh Minimal Medium Glutamate (EMMG) containing supplements as required. Inhibitors were dissolved in ethanol at different concentrations, and equal volumes of ethanolic solutions were used in all cases (including controls). Final concentrations of inhibitors ranged from 100 nM to 5 µM. Cells were preincubated with the respective inhibitor solutions for 15 min prior to the addition of steroid substrates (100 nM DOC or 100 nM RSS, respectively). For detection of steroids, 1% of the total substrate amount was radioactively labeled as [^3H]RSS, [^3H]DOC, or [^14C]DOC. After 4 h (MB164) or 24 h (SZ1) cultures were extracted with chloroform and dried under vacuum. The residues were dissolved in 10 µL chloroform and spotted onto glass-backed silica-coated HPTLC plates (Kieselgel 60 F254, Merck; Darmstadt, Germany). In addition, small amounts of non-radioactive steroids were spotted as references. The HPTLC was developed twice in chloroform/methanol/water (300:20:1, v/v/v) and steroids identified after exposure to Fuji imaging plates and quantitated on a phosphoimager (BAS-2500, Fuji; Stamford, CT, USA).

Row | Structure (SMILES) | MIC (C. albicans CA98001) [µg/mL] | MIC (CK98002 (Candida krusei)) [µg/mL] | inhibition at 36 µM (aromatase (CYP19)) [%] | CYP11B2 inhibition effect [1] | Times more active than FLC against C. albicans CA98001 (C. albicans CA98001)
1 | O[C@@](Cn1cncn1)(Cn1ccc2ccccc21)c1ccc(Cl)cc1Cl [(+)-(R)-8g] | 0.023 (≈ 0.0594 µM) | 22.1 (≈ 57 µM) | 51 | slight inhibitory effect; also recorded: slight inhibition | 
2 | O[C@](Cn1cncn1)(Cn1ccc2ccccc21)c1ccc(Cl)cc1Cl [(−)-(S)-8g] | 0.000256 (≈ 0.000661 µM) | 0.022 (≈ 0.0568 µM) | 72 | no inhibition | ≈ 80
3 | OC(Cn1cncn1)(Cn1ccc2ccccc21)c1ccc(Cl)cc1Cl (centres unmarked) [Compound 8g, 2-(2,4-Dichlorophenyl)-3-(1H-indol-1-yl)-1-(1H-1,2,4-triazol-1-yl)-propan-2-ol] | 0.000259 (≈ 0.000669 µM) | 2.79 (≈ 7.2 µM) | 27 | slight inhibitory effect; also recorded: slight inhibition | ≈ 80
